Marks after values point to notes of the source that are not given here. Where no end group is shown, it is not given here.
Key:
LC3 = LC3 marker assay (LC3-I to LC3-II conversion immunoblot);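 for Activity (μM) 10, LC3 assay activity: HeLa cells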;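 for Activity (μM) 100, LC3 assay activity: HeLa cells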;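 for Activity (μM) 20, LC3 assay activity: HeLa cells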;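 for Activity (μM) 30, LC3 assay activity: HeLa cells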;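 for Activity (μM) 50, LC3 assay activity: HeLa cells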; type: cell-based; design: key: −: activity not reported; 0: decreased vs. WT; +: similar to WT; ++: modest increase vs. WT; +++: significant increase vs. WT; conditions: for Activity (μM) 50, LC3 assay activity: 50 μM; for Activity (μM) 100, LC3 assay activity: 100 μM; for Activity (μM) 30, LC3 assay activity: 30 μM; for Activity (μM) 10, LC3 assay activity: 10 μM; for Activity (μM) 20, LC3 assay activity: 20 μM; for Activity (μM) 10, starred cell, LC3 assay activity: Table 8, 10 μM marked * (footnote: data taken at 20 instead of 30 μM)
Method: (§1) Cells were treated with peptide in OPTI-MEM (Thermo Scientific) acidified with 0.15% (v/v) 6N HCl for 3 hour. Cells were rinsed with Dulbecco's phosphate buffered saline (PBS) and lysed in lysis buffer (20 mM HEPES, 150 mM NaCl, 1 mM EDTA, 1% Triton X-100, protease inhibitor cocktail (Roche) on ice for 1 hour. Cell lysates were centrifuged at 16,000 g for 10 min at 4° C. and analyzed by SDS-PAGE and transferred to PVDF membranes. The membranes were blocked 5% non-fat dry milk (NFDM) in PBST (PBS+0.05% Tween-20) for 1 hour, then incubated overnight at 4° C. with primary antibody in 5% NFDM in PBST. The blots were washed with PBST and incubated with HRP-conjugated secondary antibodies diluted in 5% NFDM in PBST for 1 hour at room temperature. Membranes were washed with PBST and visualized with SuperSignal West Pico Chemiluminescent Substrate (Thermo Scientific). Semi-quantitative results were obtained by noting the lowest concentration at which both p62 degradation and LC3-I to LC3-II conversion were observed.
(§2) Compounds 1-10 were evaluated using the assays described in Examples 4 and 5. Activity for each compound was measured in the p62 degradation assay and the LC3 marker assay as described herein. The activity at each concentration of peptide is given as, for example, (0/+) where 0 would be the p62/actin assay activity and + would be the LC3 assay activity.

p62 = p62 degradation assay (p62/actin immunoblot);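 for Activity (μM) 10, p62/actin assay activity: HeLa cells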;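 for Activity (μM) 100, p62/actin assay activity: HeLa cells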;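 for Activity (μM) 20, p62/actin assay activity: HeLa cells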;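 for Activity (μM) 30, p62/actin assay activity: HeLa cells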;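 for Activity (μM) 50, p62/actin assay activity: HeLa cells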; type: cell-based; design: key: −: activity not reported; 0: decreased vs. WT; +: similar to WT; ++: modest increase vs. WT; +++: significant increase vs. WT; conditions: for Activity (μM) 50, p62/actin assay activity: 50 μM; for Activity (μM) 100, p62/actin assay activity: 100 μM; for Activity (μM) 30, p62/actin assay activity: 30 μM; for Activity (μM) 10, p62/actin assay activity: 10 μM; for Activity (μM) 20, p62/actin assay activity: 20 μM; for Activity (μM) 10, starred cell, p62/actin assay activity: Table 8, 10 μM marked * (footnote: data taken at 20 instead of 30 μM)
Method: as §1, §2

[1] = Table 8, control compound T25, second symbol
[2] = Table 8, control compound T25, first symbol
[3] = Table 7, control compound T25, second symbol
[4] = Table 7, control compound T25, first symbol
[5] = Table 6, control DMSO, second symbol
[6] = Table 6, control DMSO, first symbol
[7] = Table 3, control vehicle, second symbol of cell
[8] = Table 3, control vehicle, second symbol
[9] = Table 3, control vehicle, first symbol of cell
[10] = Table 3, control vehicle, first symbol

| Sequence | Activity (μM) 50, LC3 assay activity (LC3; [1]) | Activity (μM) 100, LC3 assay activity (LC3; [1]) | Activity (μM) 50, p62/actin assay activity (p62; [2]) | Activity (μM) 100, p62/actin assay activity (p62; [2]) | Activity (μM) 10, LC3 assay activity (LC3; [7]) | Activity (μM) 20, LC3 assay activity (LC3; [8]) | Activity (μM) 30, LC3 assay activity (LC3; [1]) | Activity (μM) 50, LC3 assay activity (LC3; [8]) | Activity (μM) 10, p62/actin assay activity (p62; [9]) | Activity (μM) 20, p62/actin assay activity (p62; [10]) | Activity (μM) 30, p62/actin assay activity (p62; [2]) | Activity (μM) 50, p62/actin assay activity (p62; [10]) | other results |
| --- | --- | --- | --- | --- | --- | --- | --- | --- | --- | --- | --- | --- | --- |
| VCNACFHIWH [Compound 53] | ++ | ++ | +++ | +++ | – | – | – | – | – | – | – | – | – |
| VCNATCHIWH [Compound 27] | – | – | – | – | – | – | – | – | – | – | – | – | Activity (μM) 30, LC3 assay activity (LC3; [3]): 0/0; Activity (μM) 50, LC3 assay activity (LC3; [3]): 0/0; Activity (μM) 100, LC3 assay activity (LC3; [3]): 0/0; Activity (μM) 30, p62/actin assay activity (p62; [4]): 0/0; Activity (μM) 50, p62/actin assay activity (p62; [4]): 0/0; Activity (μM) 100, p62/actin assay activity (p62; [4]): 0/0 |
| VCNATCHIWH [Compound 24] | – | – | – | – | – | – | – | – | – | – | – | – | Activity (μM) 10, LC3 assay activity (LC3; [5]): ++/++; Activity (μM) 30, LC3 assay activity (LC3; [5]): ++; Activity (μM) 50, LC3 assay activity (LC3; [5]): ++; Activity (μM) 100, LC3 assay activity (LC3; [5]): ++; Activity (μM) 10, p62/actin assay activity (p62; [6]): ++/++; Activity (μM) 30, p62/actin assay activity (p62; [6]): +++; Activity (μM) 50, p62/actin assay activity (p62; [6]): +++; Activity (μM) 100, p62/actin assay activity (p62; [6]): +++ |
| VCNATCHIWH [Compound 2] | + | – | 0 | – | 0/0 | 0/0 | 0/0 | 0/0 | 0/0 | 0/0 | 0/0 | 0/0 | Activity (μM) 100, LC3 assay activity (LC3; [8]): 0/0; Activity (μM) 10, starred cell, LC3 assay activity (LC3; second symbol): 0/0*; Activity (μM) 100, p62/actin assay activity (p62; [10]): 0/0; Activity (μM) 10, starred cell, p62/actin assay activity (p62; first symbol): 0/0* |
| YGRKKRRQRRRGGVWNATFHIWHD [8] (not fully specified (N-terminus, C-terminus)) [Compound 8] | – | – | – | – | + | ++ | – | +++ | 0 | 0 | – | ++ | – |
| VCNATCHIWH [Compound 34] | +++/+++ | +++/+++ | +++/+++ | +++/+++ | – | – | ++ | – | – | – | + | – | Activity (μM) 5, LC3 assay activity (LC3; 5 μM, Table 8, control compound T25, second symbol): 0/0; Activity (μM) 10, LC3 assay activity (LC3; [1]): 0/0; Activity (μM) 5, p62/actin assay activity (p62; 5 μM, Table 8, control compound T25, first symbol): 0/0; Activity (μM) 10, p62/actin assay activity (p62; [2]): 0/0 |
| VCNACFHIWH [Compound 10] | – | – | – | – | + | ++ | – | +++ | 0 | 0 | – | 0 | – |
| VCNATCHIWH [Compound 49] | +++/+++ | +++/+++ | +++/+++ | +++/+++ | – | – | – | – | – | – | – | – | – |
| VCNATCHIWH [Compound 44] | 0/0 | 0/0 | 0/0 | 0/0 | – | – | – | – | – | – | – | – | – |
| VWNATFHIWH (not fully specified (N-terminus, C-terminus)) [Compound 5, likely pa-10mer] | 0/0 | 0/0 | 0/0 | 0/0 | 0/0 | 0/0 | 0/0 | + | 0/0 | 0/0 | 0/0 | 0 | Activity (μM) 100, LC3 assay activity (LC3; [8]): +/+; Activity (μM) 10, starred cell, LC3 assay activity (LC3; second symbol): 0/0*; Activity (μM) 100, p62/actin assay activity (p62; [10]): +/+; Activity (μM) 10, starred cell, p62/actin assay activity (p62; first symbol): 0/0* |
